Measurements reported in US20240294498A1, “FACTOR XIIA INHIBITORS” (Lunac Therapeutics Ltd, priority 2021, published 2024).

Key:
Format in all cases: biochemical
FXIIa = target: T1, FXIIa (Homo sapiens, UniProt P00748); assay: Determination of Factor XIIa inhibition (chromogenic substrate S-2302); details: human FXIIa alpha, Ki category
T1 construct: FXIIa alpha
T1 sequence (P00748 373-615 limits assumed): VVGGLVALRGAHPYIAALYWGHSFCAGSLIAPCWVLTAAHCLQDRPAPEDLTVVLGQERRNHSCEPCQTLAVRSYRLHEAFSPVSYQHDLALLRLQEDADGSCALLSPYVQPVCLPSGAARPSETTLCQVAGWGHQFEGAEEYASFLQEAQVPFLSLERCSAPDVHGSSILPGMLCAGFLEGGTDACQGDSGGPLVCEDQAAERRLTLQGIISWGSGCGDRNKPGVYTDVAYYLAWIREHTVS
T1 sequence (P00748 20-372 partner limits assumed): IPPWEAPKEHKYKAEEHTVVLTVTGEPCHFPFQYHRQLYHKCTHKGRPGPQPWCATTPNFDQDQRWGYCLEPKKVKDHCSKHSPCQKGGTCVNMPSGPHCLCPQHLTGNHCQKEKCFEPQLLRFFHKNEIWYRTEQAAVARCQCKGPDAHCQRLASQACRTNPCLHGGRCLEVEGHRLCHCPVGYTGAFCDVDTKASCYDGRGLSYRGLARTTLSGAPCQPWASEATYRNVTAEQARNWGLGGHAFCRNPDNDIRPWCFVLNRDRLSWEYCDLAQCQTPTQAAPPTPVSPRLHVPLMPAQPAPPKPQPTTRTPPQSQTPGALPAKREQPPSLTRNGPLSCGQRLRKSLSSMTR
Description: (§1) The activities of the compounds of the invention have been determined in vitro using the following assays protocols for the screening of activity of FXIIa and other proteases. Each of these assays were performed in a purified system employing the use of chromogenic assays in microplate plate wells. Chromogenic peptide substrates mimicking natural protein substrates are attached via an amide bond to a chromogenic group. Paranitroaniline (pNA) is released from the peptide following catalyses by the proteolytic enzyme; the absorbance increases and can be monitored at 405 nm.
(§2) All compounds were dissolved in 100% (v/v) DMSO to a stock concentration of 10 mM, the highest concentration of compound used in each assay is 500 μM. The final concentrations of DMSO were 5% (v/v) in 50 mM Tris 137 mM NaCl pH 7.4. Where no test compound was added a final concentration of 5% DMSO was employed.
Factor XIIa activity was measured using a chromogenic substrate S-2302 (Chromogenix). Various concentrations of compound were incubated with 10 nM of FXIIa and incubated at 37° C. for 10 minutes in 50 mM Tris, 137 mM NaCl, pH 7.4, prior to the addition of the chromogenic substrate S-2302 at a concentration equal the to the experimentally derived KM. Kinetic readings at 405 nm were monitored every 12 secs for a total duration of 3 hours at 37° C. Gradients of initial rates were determined and employed to calculate IC50 values.
The activity of the compounds of the invention has been categorised based on the Ki values, the categories being “†”, “*”, “**” and “***”. […] The category “**” refers to compounds with a Ki value of 0.2 μM to 0.8 μM.
(§3) Ki═IC50/(1+[Substrate]/Km)
(§4) Where [Substrate] denotes the concentration of substrate used in the assay and Km is the determined value of each enzyme with its own substrate.

FXa = FXa (Homo sapiens, UniProt P00742); assay: Determination of selectivity: FXa inhibition (chromogenic substrate S2765); details: fold selectivity for FXIIa over FXa (human); category
Description: as §1, §2
(§5) To determine selectivity of test compounds, these test compounds were assayed for inhibitory activity against other serine proteases including FXa and thrombin. Essentially compounds at increasing concentrations were incubated with each enzyme: FXa (5 nM) and thrombin (5 nM), for 10 mins at 37° C. followed by the appropriate chromogenic substrate, S2765 (Chromogenix) and GPR (Bachem) respectively in 50 mM Tris, 137 mM NaCl, pH 7.4. Substrates were used at a concentration equal to the appropriate experimentally derived KM. Kinetic readings at 405 nm were monitored every 12 secs for a total duration of 3 hours at 37° C. Gradients of initial rates were determined and employed to calculate IC50 values. Values of IC50 were converted to Ki values based on the formula:
as §3, §4
The fold selectivity for FXIIa over FXa for the compounds of the invention has been categorised based on the fold selectivity values, the categories being “o”, “oo” and “ooo”. The category “o” refers to fold selectivity values less than 10 (e.g. a fold selectivity value of less than 10 and greater than 1). The category “oo” refers to a fold selectivity value of 10 to 100. The category “ooo” refers to fold selectivity values greater than 100.

thrombin = target: T2, thrombin (Homo sapiens, UniProt P00734); assay: Determination of selectivity: thrombin inhibition (chromogenic substrate GPR); details: fold selectivity for FXIIa over thrombin (human); category
T2 construct: FXa (5 nM) and thrombin (5 nM)
Description: as §1, §2, §5, §3, §4
The fold selectivity for FXIIa over thrombin for the compounds of the invention has been categorised based on the fold selectivity values, the categories being “+”, “++” and “+++”. The category “+” refers to fold selectivity values less than 10 (e.g. a fold selectivity value of less than 10 and greater than 1). The category “++” refers to a fold selectivity value of 10 to 100. The category “+++” refers to fold selectivity values greater than 100.

FXa, sequence (P00742 235-488 limits assumed): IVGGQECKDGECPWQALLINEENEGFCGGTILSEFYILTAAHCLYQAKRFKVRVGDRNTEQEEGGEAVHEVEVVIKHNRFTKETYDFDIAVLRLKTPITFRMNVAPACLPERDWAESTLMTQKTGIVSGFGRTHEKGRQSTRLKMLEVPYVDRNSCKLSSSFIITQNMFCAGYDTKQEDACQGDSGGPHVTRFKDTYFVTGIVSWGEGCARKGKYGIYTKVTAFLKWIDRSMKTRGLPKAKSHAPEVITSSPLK
FXa, sequence (P00742 41-179 partner limits assumed): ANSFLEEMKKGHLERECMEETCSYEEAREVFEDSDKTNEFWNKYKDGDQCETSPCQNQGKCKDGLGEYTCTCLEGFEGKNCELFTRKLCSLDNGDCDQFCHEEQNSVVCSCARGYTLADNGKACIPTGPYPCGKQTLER

Ki (FXIIa)	FXa (human)/FXIIa alpha (human) (FXa)	SMILES	Thrombin (human)/FXIIa alpha (human) (thrombin)
< 200 nM	∘∘∘	Cc1ccc(C[C@@H]2C[C@@H](C(=O)NCc3ccc4c(cnn4C)c3)N(C(=O)[C@@H]3NCCC[C@@H]3C(=O)N3CCCCC3)C2)cc1 [Example M05733, (2S,4R)-N-((1-methyl-1H-indazol-5-yl)methyl)-4-(4-methylbenzyl)-1-((2R,3S)-3-(piperidine-1-carbonyl)piperidine-2-carbonyl)pyrrolidine-2-carboxamide]	++ (a fold selectivity value of 10 to 100)
800 to 5000 nM	∘∘∘	Cc1ccc(C[C@@H]2C[C@@H](C(=O)NCc3ccc4[nH]ncc4c3)N(C(=O)[C@@H]3NCCC[C@@H]3C(=O)N3CCCC3)C2)cc1 [Example M05748, (2S,4R)-N-((1H-indazol-5-yl)methyl)-4-(4-methylbenzyl)-1-((2R,3S)-3-(pyrrolidine-1-carbonyl)piperidine-2-carbonyl)pyrrolidine-2-carboxamide]	++ (a fold selectivity value of 10 to 100)
200 to 800 nM	∘∘∘	Cc1ccc(C[C@@H]2C[C@@H](C(=O)NCc3ccc4c(cnn4C)c3)N(C(=O)[C@@H]3NCCC[C@@H]3C(=O)N3CCOCC3)C2)cc1 [Example M05753, (2S,4R)—N-((1-methyl-1H-indazol-5-yl)methyl)-4-(4-methylbenzyl)-1-((2R,3S)-3-(morpholine-4-carbonyl)piperidine-2-carbonyl)pyrrolidine-2-carboxamide]	++ (a fold selectivity value of 10 to 100)
200 to 800 nM	∘∘∘	Cc1ccc(C[C@@H]2C[C@@H](C(=O)NCc3ccc4c(cnn4C)c3)N(C(=O)[C@@H]3NCCC[C@@H]3C(=O)N3CCNCC3)C2)cc1 [Example M05754, (2S,4R)-N-((1-methyl-1H-indazol-5-yl)methyl)-4-(4-methylbenzyl)-1-((2R,3S)-3-(piperazine-1-carbonyl)piperidine-2-carbonyl)pyrrolidine-2-carboxamide]	+++ (fold selectivity values greater than 100)
< 200 nM	∘∘∘	Cc1ccc(C[C@@H]2C[C@@H](C(=O)NCC3Cc4ccncc4C3)N(C(=O)[C@@H]3NCCC[C@@H]3C(=O)N3CCCC3)C2)cc1 (stereo partly drawn) [Example M05764, (2S,4R)-N-((6,7-dihydro-5H-cyclopenta[c]pyridin-6-yl)methyl)-4-(4-methylbenzyl)-1-((2R,3S)-3-(pyrrolidine-1-carbonyl)piperidine-2-carbonyl)pyrrolidine-2-carboxamide]	+++ (fold selectivity values greater than 100)

The next lines start with the compound.

SMILES	Ki (FXIIa)	FXa (human)/FXIIa alpha (human) (FXa)	Thrombin (human)/FXIIa alpha (human) (thrombin)
O=C(NCc1cc2cnccc2[nH]1)[C@@H]1C[C@H](C(F)(F)F)CN1C(=O)[C@@H]1NCCC[C@@H]1C(=O)N1CCCC1 [Example M05720, (2S,4S)-N-((1H-pyrrolo[3,2-c]pyridin-2-yl)methyl)-1-((2R,3S)-3-(pyrrolidine-1-carbonyl)piperidine-2-carbonyl)-4-(trifluoromethyl)pyrrolidine-2-carboxamide]	< 200 nM	∘∘∘	+++ (fold selectivity values greater than 100)
Cc1ccc(C[C@@H]2C[C@@H](C(=O)NCc3ccc4c(cnn4C)c3)N(C(=O)[C@@H]3NCCC[C@@H]3C(=O)N3CCC[C@@H]3C(F)(F)F)C2)cc1 [Example M05747, (2S,4R)-N-((1-methyl-1H-indazol-5-yl)methyl)-4-(4-methylbenzyl)-1-((2R,3S)-3-((R)-2-(trifluoromethyl)pyrrolidine-1-carbonyl)piperidine-2-carbonyl)pyrrolidine-2-carboxamide]	< 200 nM	∘∘∘	+++ (fold selectivity values greater than 100)
Cc1ccc(C[C@@H]2C[C@@H](C(=O)NCc3ccc4c(cnn4C)c3)N(C(=O)[C@@H]3NCCC[C@@H]3C(=O)N(C)C)C2)cc1 [Example M05751, (2R,3S)-N,N-dimethyl-2-((2S,4R)-2-(((1-methyl-1H-indazol-5-yl)methyl)carbamoyl)-4-(4-methylbenzyl)pyrrlidine-1-carbonyl)piperidine-3-carboxamide]	200 to 800 nM	∘∘∘	+++ (fold selectivity values greater than 100)
Cc1ccc(C[C@@H]2C[C@@H](C(=O)NCc3ccc4c(cnn4C)c3)N(C(=O)[C@@H]3NCCC[C@@H]3C(=O)N(C)C3CC3)C2)cc1 [Example M05752, (2R,3S)-N-cyclopropyl-N-methyl-2-((2S,4R)-2-(((1-methyl-1H-indazol-5-yl)methyl)carbamoyl)-4-(4-methylbenyl)pyrrolidine-1-carbonyl)piperidine-3-carboxamide]	< 200 nM	∘∘∘	++ (a fold selectivity value of 10 to 100)
Cc1ccc(C[C@@H]2C[C@@H](C(=O)NCc3ccc4c(cnn4C)c3)N(C(=O)[C@H]3[C@@H](C(=O)N4CCCC4)CCCN3C)C2)cc1 [Example M05757, (2S,4R)—N-[(1-methylindazol-5-yl)methyl]-1-[(2R,3S)-1-methyl-3-(pyrrolidine-1-carbonyl)piperidine-2-carbonyl]-4-(p-tolylmethyl)pyrrolidine-2-carboxamide]	< 200 nM	∘∘∘	+++ (fold selectivity values greater than 100)
Cc1ccc(C[C@@H]2C[C@@H](C(=O)NCc3ccc4c(cnn4C)c3)N(C(=O)[C@@H]3NCCC[C@@H]3C(=O)N3CCC4(CC4)C3)C2)cc1 [Example M05766, (2S,4R)-1-[(2R,3S)-3-(5-azaspiro[2.4]heptane-5-carbonyl)piperidine-2-carbonyl]-N-[(1-methylindazol-5-yl)methyl]-4-(p-tolylmethyl)pyrrolidine-2-carboxamide]	< 200 nM	∘∘∘	+++ (fold selectivity values greater than 100)
Cc1ccc(C[C@@H]2C[C@@H](C(=O)NCc3ccc4c(cnn4C)c3)N(C(=O)[C@@H]3NCCC[C@@H]3C(=O)N3C4CCC3COC4)C2)cc1 [Example M05770, (2S,4R)-1-((2R,3S)-3-(3-oxa-8-azabicyclo[3.2.1]octane-8-carbonyl)piperidine-2-carbonyl)-N-((1-methyl-1H-indazol-5-yl)methyl)-4-(4-methylbenzyl)pyrrolidine-2-carboxamide]	200 to 800 nM	∘∘∘	+++ (fold selectivity values greater than 100)
